Experimental data from patent US20250346629A1, “USE OF D-ENANTIOMERIC PEPTIDE LIGANDS OF MONOMERIC ALPHA-SYNUCLEIN FOR THE THERAPY OF VARIOUS SYNUCLEINOPATHIES” (PRIAVOID GMBH, priority 2021, published 2025).
Square brackets hold non-standard residues; d marks the D form. Peptide text beside a SMILES is read from it.

Experiments:
[1] = test system: αSynA53T-YFP cells (HEK293T); test: Cell assay for seeded α-synuclein aggregation (FIG. 19); assay type: cell-based, human; conditions: seeded with 30 nM PFF oligomers, day 3, two-stage transfection
Protocol: A construct encoding full-length A53T-mutated human α-syn and fused with YFP at the C-terminus was synthesized and introduced into the pMK-RQ expression vector (GeneArt; Thermo Fisher Scientific, USA). The α-synA53T-YFP construct was sub-cloned using the restriction sites NheI (5′) and NotI (3′) in the vector pIRESpuro3 (Clontech; Takara Bio, JPN). HEK293T cells (American Type Culture Collection) were cultured in high-glucose Dulbecco's Modified Eagle's Medium (DMEM; Sigma-Aldrich, USA) which had 10% fetal calf serum (Sigma-Aldrich, USA), 50 units/ml penicillin, and also 50 μg/ml streptomycin (Sigma-Aldrich, USA) added thereto. The cells were cultured at 37° C. in a humidified atmosphere with 5% CO2.
The cells plated in DMEM were transfected with Lipofectamine 2000 (Invitrogen; Thermo Fisher Scientific, USA). Stable cells were selected in DMEM with 1 μg/ml puromycin (EMD Millipore, USA). Monoclonal cell lines were produced by means of fluorescence-activated cell sorting of a polyclonal cell population in 96-well plates using a MoFlo XDP cell sorter (Beckman Coulter, USA). […]
The plates were then incubated at 37° C. in a humidified atmosphere with 5% CO2. On the third day, the cells were imaged in an IN Cell Analyzer 6500HS system (Cytiva, USA) using the blue and green fluorescence channels, and analyzed by the IN Carta Image Analysis software (Cytiva, USA) which had been used to establish an algorithm for identifying intracellular aggregates in living cells. Four wells were used for each condition and 16 images were recorded per well and analyzed by a fully-automated algorithm in order to prevent distortions. […]
In order to validate the inhibitory effect of SVD-1a in cells, use was made of the α-synA53T-YFP cell system which stably expresses human α-syn with the familial A53T mutation, fused with YFP, in HEK293T cells, and the fluorescence-based detection of aggregates makes it possible to clearly show the strongly fluorescent spots within the cells against the background, intracellularly after seeding with PFF oligomers. […] Panels C, F and I show αSynA53T-YFP fluorescence. […]

PC12 cells = assay type: cell-based; conditions: rat, 24 h, 0.5 μM
Protocol: PC12 cells (Leibniz-Institut DSMZ, GE) were cultured at 37° C. on a collagen A-coated (Biochrom GmbH, GE) tissue culture flask in RPMI 1640 medium, supplemented with 5% fetal calf serum and 10% horse serum in an atmosphere humidified to 95% with 5% CO2. 10 000 cells per well in a volume of 100 μl were seeded into collagen A-coated 96-well plates (Thermo Fisher Scientific, USA and incubated for 24 hours at 37° C. and 300 rpm in a thermocycler.
Furthermore, 15 μM of the peptides alone, cell media, buffer without peptide and 0.1% Triton X-100 (cytotoxic compound) were used as controls. After further incubation in a 95% humidified atmosphere with 5% CO2 at 37° C. for 24 hours, the viability of the cells was measured using the Cell Proliferation Kit I (MTT) (Roche Applied Science, CH), following the manufacturer's protocol.
The MTT-formazan product was quantified by measuring the absorbance at 570 nm, corrected by subtracting the absorbance at 660 nm, in a FluoroStar Optima plate reader (BMG labtech, GE). All results were normalized to untreated cells grown only in medium. The significance test was carried out by one-way ANOVA with Bonferroni post-hoc analysis (OriginPro 2020, OriginLab, USA; n=4).
The significance test was carried out by one-way ANOVA with Bonferroni post-hoc analysis: […], ***p≤0.01. The means are stated±SD (n=4).

CC[C@@H](C)[C@@H](NC(=O)[C@@H](Cc1c[nH]cn1)NC(=O)[C@@H](CCC(=O)O)NC(=O)[C@@H](CCC(N)=O)NC(=O)[C@@H](Cc1c[nH]c2ccccc12)NC(=O)[C@@H](Cc1ccc(O)cc1)NC(=O)[C@H](NC(=O)[C@@H](CCC(=O)O)NC(=O)[C@@H](Cc1c[nH]cn1)NC(=O)[C@H](NC(=O)[C@H]1CCCN1C(=O)[C@@H](CC(C)C)NC(=O)[C@H](N)CCCNC(=N)N)[C@H](C)O)[C@H](C)O)C(=O)N[C@H](Cc1c[nH]c2ccccc12)C(=O)N[C@H](Cc1c[nH]cn1)C(=O)N[C@H](C)C(=O)N[C@H](CCCNC(=N)N)C(=O)N[C@H](CCCNC(=N)N)C(=O)N[C@H](CCCNC(=N)N)C(=O)N[C@H](CCCNC(=N)N)C(=O)N[C@H](CCCNC(=N)N)C(N)=O [SVD-1a, rlpthetywqehiwharrrrr] (H-[dR][dL][dP][dT][dH][dE][dT][dY][dW][dQ][dE][dH][dI][dW][dH][dA][dR][dR][dR][dR][dR]-NH2)
inhibition of α-syn aggregation in cells [1]: inhibited α-syn aggregation in αSynA53T-YFP cells in a dose-dependent manner | cells saved (cell viability) (PC12 cells): 82%
